The test system of experiment [1] is Pyricularia oryzae (rice blast). In words: whole plant or invertebrate. The experiment is classed as in vivo. The settings on record: foliar, read-out: RICE BLAST control rating.
Experiment [2] deals with Pseudoperonospora cubensis (downy mildew). In words: Plant pathology screen (Test 1), downy mildew on squash. The settings on record: foliar, read-out: DOWN MDEW control rating.
Experiment [3] has as its system Southern corn rootworm (Diabrotica undecimpuctata howardi Barber). In words: Mite/insect screen, corn rootworm. It is filed as in vivo. The conditions noted are these: Diabrotica, soil, read-out: CRW results (percent mortality); for mortality at 12 ppm: CRW rate 12.00 ppm; for mortality at 24 ppm: CRW rate 24.00 ppm. On the procedure:
(§1) The compounds of Examples were tested for miticidal and insecticidal activity in the following mite/insect screen.
(§2) Each test compound was formulated by dissolving the compound in acetone/alcohol (50:50) mixture containing 23 g of "TOXIMUL R" (sulfonate/nonionic emulsifier blend) and 13 g of "TOXIMUL S" (sulfonate/nonionic emulsifier blend) per liter. These mixtures were then diluted with water to give the indicated concentrations.
Activity on Southern corn rootworm (Diabrotica undecimpuctata howardi Barber) was evaluated by adding two ml of tap water, a presoaked corn seed, and 15 g of dry sandy soil to a one ounce plastic container. The soil was treated with 1 mL of test solution containing a predetermined concentration of test compound. After six to 12 hours of drying, five 2-3 instar corn rootworm larvae were added to the individual cups, which were then capped and held at 23° C.
(§3) After standard exposure periods, percent mortality and phytotoxicity were evaluated. […] The following abbreviations are used in Table 3:
CRW refers to corn rootworm

Experiment [4] has as its system Erysiphe graminis tritici (powdery mildew). Description: Plant pathology screen (Test 1), powdery mildew on wheat. The settings on record: Blumeria graminis, in Triticum aestivum, foliar, read-out: POWD MDEW control rating.
Experiment [5] has as its system Puccinia recondita tritici (leaf rust). In words: Plant pathology screen (Test 1), leaf rust on wheat. The conditions noted are these: in Triticum aestivum, foliar, read-out: LEAF RUST control rating.
Experiment [6] has as its system melon aphids (Aphis gossvpii Glover). Description: Mite/insect screen, melon aphids. The experiment is classed as in vivo. The conditions noted are these: Aphis, sprayed leaves, read-out: MA results (percent mortality); for mortality at 200 ppm: rate 200 ppm; for mortality at 400 ppm: rate 400 ppm. On the procedure:
as §1, §2
(§4) Twospotted spider mites (Tetranychus urticae Koch) and melon aphids (Aphis gossvpii Glover) were introduced on squash cotyledons and allowed to establish on both leaf surfaces. Other plants in the same treatment pot were left uninfested. The leaves were then sprayed with 5 ml of test solution using a DeVilbiss atomizing sprayer at 10 psi. Both surfaces of the leaves were covered until runoff, and then allowed to dry for one hour. Two uninfested leaves were then excised and placed into a Petri dish containing larval southern armyworm (Spodopetra eridania Cramer).
as §3
MA refers to melon aphids.

In experiment [7] the test system is southern armyworm (Spodopetra eridania Cramer). In words: Mite/insect screen, Southern armyworm. It is filed as in vivo. The conditions noted are these: Spodoptera eridania, sprayed leaves, read-out: SAW results (percent mortality); for mortality at 200 ppm: rate 200 ppm; for mortality at 400 ppm: rate 400 ppm. On the procedure: as §1, §2, §4, §3
SAW refers to Southern armyworm

The subject of experiment [8] is Botrytis cinerea (gray mold). Description: Plant pathology screen (Test 1), gray mold on grape berries. The conditions noted are these: read-out: GRAY MOLD control rating.
The subject of experiment [9] is Twospotted spider mites (Tetranychus urticae Koch). In words: Mite/insect screen, twospotted spider mites. It is filed as in vivo. The settings on record: Tetranychus urticae, sprayed leaves, read-out: SM results (percent mortality); for mortality at 200 ppm: rate 200 ppm; for mortality at 400 ppm: rate 400 ppm. On the procedure:
as §1, §2, §4, §3
SM refers to twospotted spider mites

Each structure is given as a SMILES string.

As a reminder, the mortality is the percentage killed.

Regarding `Cc1coc2ncnc(NCCc3ccccc3)c12` [Example 19, 5-methyl-N-(2-phenylethyl)furo[2,3-d]pyrimidin-4-amine], the pest or weed control at 400 µg/mL in experiment [1] is 0 to 19%; in experiment [2] it was 90 to 100%; in [4], 20 to 89%; in experiment [5] it was 90 to 100%; in experiment [8] it was 0 to 19%. Also, the mortality at 12 ppm in experiment [3] was determined as 0%. In addition, in [3], the mortality at 24 ppm amounted to 0%. For the same compound, the mortality at 200 ppm in experiment [6], in [7] and in [9] was 0% throughout. Also, the mortality at 400 ppm is 90% in [6], 0% in [7] and 0% in experiment [9].

As to `Cc1oc2ncnc(NCCc3ccc(OCC(F)(F)F)cc3)c2c1C` [Example 73, 5,6-dimethyl-N-[2-[4-(2,2,2-trifluoroethoxy)phenyl]ethyl]furo[2,3-d]pyrimidin-4-amine], the pest or weed control at 400 µg/mL is 0 to 19% in experiment [1]; 20 to 89% in experiment [2]; 0 to 19% in [4]; 20 to 89% in experiment [5]; 0 to 19% in experiment [8]. In addition, in experiment [3], the mortality at 24 ppm amounted to 0%. Besides, the mortality at 400 ppm in experiment [6] turned out to be 90%; in experiment [7] it was 100%; in experiment [9], 0%.

For `COc1ccc(CCNc2ncnc3oc(C)c(C)c23)cc1OC` [Example 25, 5,6-dimethyl-N-[2-(3,4-dimethoxyphenyl)ethyl]furo[2,3-d]pyrimidin-4-amine], the pest or weed control at 400 µg/mL lay in the range of 0 to 19% in experiment [1]; 0 to 19% in experiment [2]; 0 to 19% in experiment [4]; 20 to 89% in experiment [5]; 0 to 19% in experiment [8]. Moreover, in experiment [3], the mortality at 12 ppm was 0%. The mortality at 24 ppm in experiment [3] was determined as 0%. Further, the mortality at 200 ppm in experiment [6], in [7] and in experiment [9] was 0% throughout. For the same compound, the mortality at 400 ppm in experiment [6], in experiment [7] and in experiment [9] was 0% each time.

Take `Cc1oc2ncnc(NCCc3ccc(OC(F)(F)C(F)F)cc3)c2c1C` [Example 47, N-[2-[4-(1,1,2,2-tetrafluoroethoxy)phenyl]ethyl]-5,6-dimethylfuro[2,3-d]pyrimidin-4-amine]: the pest or weed control at 400 µg/mL in experiment [1] is 90 to 100%; in experiment [2], 90 to 100%; in experiment [4], 20 to 89%; in experiment [5] it was 90 to 100%; in experiment [8], 0 to 19%. Further, the mortality at 12 ppm in [3] turned out to be 100%. Further, the mortality at 24 ppm in experiment [3] was 80%. Besides, the mortality at 200 ppm in experiment [6] worked out at 100%; in experiment [7] it was 100%; in experiment [9], 90%. The mortality at 400 ppm in experiment [6] came out at 100%; in [7], 0%; in experiment [9], 100%.

Consider `COc1ccc(CCNc2ncnc3oc(C)cc23)cc1` [Example 4, N-(2-(4-methoxyphenyl)ethyl]-6-methylfuro(2,3-d]pyrimidin-4-amine], for which the pest or weed control at 400 µg/mL was in the range of 20 to 89% in experiment [1]; 0 to 19% in experiment [2]; 0 to 19% in [4]; 90 to 100% in experiment [5]; 0 to 19% in experiment [8]. The mortality at 24 ppm in [3] is 0%. Further, the mortality at 400 ppm in experiment [6], in experiment [7] and in [9] was 0% each time.

As to `Cc1oc2ncnc(NCC(Cc3ccc(F)cc3)c3ccc(Cl)cc3)c2c1C` (centres unmarked) [Example 26, N-[2-(4-chlorophenyl)-3-(4-fluorophenyl)propyl]-5,6-dimethylfuro[2,3-d]pyrimidin-4-amine], the pest or weed control at 400 µg/mL in experiment [1], in experiment [2], in experiment [4], in experiment [5] and in experiment [8] was 0 to 19% throughout. Besides, in experiment [3], the mortality at 12 ppm amounted to 0%. In addition, the mortality at 24 ppm in [3] was 0%. Further, the mortality at 200 ppm in experiment [6], in [7] and in experiment [9] was 0% throughout. In addition, the mortality at 400 ppm in experiment [6], in experiment [7] and in [9] was 0% in each case.

With `Cc1cc2c(OCCc3ccc(C(C)(C)C)cc3)ncnc2o1` [Example 46, 4-[2-[4-(1,1-dimethylethyl)phenyl]ethoxy]-6-methylfuro[2,3-d]pyrimidine], the pest or weed control at 400 µg/mL in experiment [1], in experiment [2], in experiment [4], in experiment [5] and in experiment [8] was 0 to 19% each time. Moreover, the mortality at 12 ppm in [3] is 0%. For the same compound, the mortality at 24 ppm in experiment [3] was 0%. In addition, the mortality at 200 ppm turned out to be 90% in [6], 0% in [7] and 80% in experiment [9]. For the same compound, the results for the mortality at 400 ppm in experiment [6], in [7] and in experiment [9] were 60%, 0% and 80%, respectively.

For `Cc1oc2ncnc(OCCc3ccc(-c4ccccc4)cc3)c2c1C` [Example 51, 4-[2-[4-biphenylyl]ethoxy]-5,6-dimethylfuro[2,3-d]pyrimidine], the pest or weed control at 400 µg/mL in experiment [1] was in the range of 0 to 19%; in experiment [2], 90 to 100%; in [4], 0 to 19%; in experiment [5], 0 to 19%; in experiment [8] it was 0 to 19%. The mortality at 12 ppm in experiment [3] turned out to be 0%. Besides, the mortality at 24 ppm in experiment [3] was 0%. Also, the results for the mortality at 200 ppm in [6], in experiment [7] and in experiment [9] were 90%, 0% and 100%, respectively. Besides, the values for the mortality at 400 ppm in [6], in experiment [7] and in experiment [9] were 80%, 0% and 80%, respectively.

On to `Cc1ccc(CCNc2ncnc3oc(C)c(C)c23)cc1` [Example 24, 5,6-dimethyl-N-[2-(4-methylphenyl)ethyl]furo[2,3-d]pyrimidin-4-amine], for which the pest or weed control at 400 µg/mL in experiment [1] was in the range of 20 to 89%; in experiment [2] it was 0 to 19%; in experiment [4], 0 to 19%; in [5], 90 to 100%; in experiment [8], 0 to 19%. Also, the mortality at 12 ppm in experiment [3] was 0%. Besides, the mortality at 24 ppm in experiment [3] was 0%. Further, the mortality at 200 ppm in [6], in [7] and in [9] was 0% throughout. Besides, the mortality at 400 ppm in [6], in experiment [7] and in [9] was 0% each time.

For `COc1ccc(CCNc2ncnc3occ(C)c23)cc1` [Example 2, 5-methyl-N-[2-(4-methoxyphenyl)ethyl]furo[2,3-d]pyrimidin-4-amine], the pest or weed control at 400 µg/mL is 90 to 100% in experiment [1]; 90 to 100% in [2]; 20 to 89% in experiment [4]; 90 to 100% in experiment [5]; 0 to 19% in experiment [8]. Besides, the mortality at 12 ppm in experiment [3] amounted to 0%. Further, the mortality at 24 ppm in experiment [3] worked out at 0%. Further, the mortality at 200 ppm in experiment [6], in experiment [7] and in experiment [9] was 0% each time. Further, the mortality at 400 ppm in experiment [6] came to 80%; in [7], 0%; in experiment [9], 0%.
